Experimental data reported in the NIST ThermoML archive (doi:10.1021/acs.jced.5b00385).

Conditions: Liquid, Vibrating tube method

COCCOC(C)=O [2-methoxyethyl ethanoate]
Conditions | mass density [kg/m3]
283.47 K, 100 kPa | 1015.98
283.47 K, 1000 kPa | 1016.6
283.47 K, 3000 kPa | 1018.02
283.47 K, 5000 kPa | 1019.43
283.47 K, 10000 kPa | 1022.82
283.47 K, 20000 kPa | 1029.33
283.47 K, 25000 kPa | 1032.44
283.47 K, 30000 kPa | 1035.47
283.47 K, 40000 kPa | 1041.29
283.47 K, 50000 kPa | 1046.81
283.47 K, 60000 kPa | 1052.11
283.47 K, 70000 kPa | 1057.33
283.47 K, 80000 kPa | 1062.12
283.47 K, 100000 kPa | 1071.34
283.48 K, 15000 kPa | 1026.12
283.48 K, 90000 kPa | 1066.8
293.45 K, 100 kPa | 1005.18
293.45 K, 1000 kPa | 1005.85
293.45 K, 3000 kPa | 1007.33
293.45 K, 5000 kPa | 1008.8
293.45 K, 10000 kPa | 1012.42
293.45 K, 15000 kPa | 1015.91
293.45 K, 20000 kPa | 1019.32
293.45 K, 25000 kPa | 1022.58
293.45 K, 30000 kPa | 1025.8
293.45 K, 40000 kPa | 1031.92
293.45 K, 50000 kPa | 1037.72
293.45 K, 60000 kPa | 1043.26
293.45 K, 70010 kPa | 1048.51
293.45 K, 90000 kPa | 1058.45
293.46 K, 80010 kPa | 1053.61
293.46 K, 100000 kPa | 1063.15
303.37 K, 100 kPa | 993.64
303.37 K, 5000 kPa | 997.55
303.37 K, 25000 kPa | 1012.15
303.37 K, 90010 kPa | 1049.67
303.38 K, 1000 kPa | 994.33
303.38 K, 3000 kPa | 995.95
303.38 K, 10000 kPa | 1001.38
303.38 K, 15000 kPa | 1005.07
303.38 K, 20000 kPa | 1008.68
303.38 K, 30000 kPa | 1015.48
303.38 K, 40000 kPa | 1021.92
303.38 K, 50000 kPa | 1027.99
303.38 K, 60000 kPa | 1033.79
303.38 K, 70000 kPa | 1039.34
303.38 K, 80000 kPa | 1044.62
303.38 K, 100000 kPa | 1054.53
313.28 K, 25000 kPa | 1002.26
313.29 K, 100 kPa | 982.6
313.29 K, 20000 kPa | 998.59
313.3 K, 1000 kPa | 983.35
313.3 K, 3000 kPa | 985.09
313.3 K, 5000 kPa | 986.8
313.3 K, 10000 kPa | 990.88
313.3 K, 15000 kPa | 994.81
313.3 K, 30000 kPa | 1005.78
313.3 K, 40000 kPa | 1012.55
313.3 K, 50000 kPa | 1018.92
313.3 K, 60000 kPa | 1024.91
313.3 K, 70000 kPa | 1030.73
313.3 K, 80000 kPa | 1036.18
313.3 K, 90000 kPa | 1041.42
313.3 K, 100000 kPa | 1046.43
323.14 K, 100 kPa | 971.53
323.14 K, 1000 kPa | 972.34
323.14 K, 3000 kPa | 974.16
323.15 K, 5000 kPa | 975.96
323.15 K, 10000 kPa | 980.29
323.15 K, 15000 kPa | 984.47
323.15 K, 20000 kPa | 988.47
323.15 K, 25000 kPa | 992.34
323.15 K, 70000 kPa | 1022.15
323.15 K, 80000 kPa | 1027.84
323.15 K, 90000 kPa | 1033.26
323.15 K, 100000 kPa | 1038.48
323.16 K, 30000 kPa | 996.08
323.16 K, 40000 kPa | 1003.14
323.16 K, 50000 kPa | 1009.8
323.16 K, 60000 kPa | 1016.1
333.01 K, 100 kPa | 960.32
333.01 K, 1000 kPa | 961.21
333.01 K, 3000 kPa | 963.17
333.01 K, 50000 kPa | 1000.75
333.01 K, 60000 kPa | 1007.3
333.02 K, 5000 kPa | 965.08
333.02 K, 10000 kPa | 969.69
333.02 K, 15000 kPa | 974.13
333.02 K, 20000 kPa | 978.36
333.02 K, 25000 kPa | 982.46
333.02 K, 30000 kPa | 986.35
333.02 K, 40000 kPa | 993.79
333.02 K, 70000 kPa | 1013.7
333.02 K, 80000 kPa | 1019.56
333.02 K, 90000 kPa | 1025.22
333.02 K, 100000 kPa | 1030.6
342.87 K, 1000 kPa | 949.88
342.88 K, 100 kPa | 948.92
342.88 K, 3000 kPa | 951.95
342.89 K, 5000 kPa | 953.98
342.89 K, 10000 kPa | 958.88
342.89 K, 15000 kPa | 963.56
342.89 K, 20000 kPa | 968.04
342.89 K, 25000 kPa | 972.33
342.9 K, 30000 kPa | 976.44
342.9 K, 40000 kPa | 984.26
342.9 K, 50000 kPa | 991.52
342.9 K, 60000 kPa | 998.35
342.9 K, 70000 kPa | 1005.1
342.9 K, 80010 kPa | 1011.23
342.9 K, 90000 kPa | 1017.07
342.9 K, 100000 kPa | 1022.63
352.77 K, 10000 kPa | 948.28
352.77 K, 15000 kPa | 953.26
352.77 K, 20000 kPa | 958
352.78 K, 25000 kPa | 962.53
352.78 K, 30000 kPa | 966.88
352.78 K, 40000 kPa | 975.07
352.78 K, 50000 kPa | 982.69
352.78 K, 60000 kPa | 989.8
352.79 K, 100 kPa | 937.57
352.79 K, 1000 kPa | 938.6
352.79 K, 3000 kPa | 940.86
352.79 K, 5000 kPa | 943.03
352.79 K, 70000 kPa | 996.7
352.79 K, 80000 kPa | 1003.07
352.79 K, 90000 kPa | 1009.1
352.79 K, 100000 kPa | 1014.88
362.64 K, 100 kPa | 926.12
362.64 K, 1000 kPa | 927.21
362.64 K, 3000 kPa | 929.6
362.64 K, 5000 kPa | 931.91
362.64 K, 15000 kPa | 942.8
362.64 K, 50000 kPa | 973.78
362.65 K, 10000 kPa | 937.52
362.65 K, 20000 kPa | 947.84
362.65 K, 25000 kPa | 952.6
362.65 K, 30000 kPa | 957.19
362.65 K, 40000 kPa | 965.79
362.65 K, 60000 kPa | 981.22
362.65 K, 70000 kPa | 988.32
362.65 K, 80000 kPa | 994.92
362.65 K, 90000 kPa | 1001.16
362.65 K, 100000 kPa | 1007.15
